Where “and” joins values, the source holds several entries; their conditions need not be identical. Identical values can stand only once. Like-named read-outs stand apart in the source and are kept apart here.
Tests used:
[1] = test system: SARS-CoV-2 in VeroE6 TMPRSS2 cells; assay: microbe, parasite or virus in culture; type: cell-based
MACV ExoN = MACV ExoN (Mammarenavirus machupoense, UniProt P26578); assay: biochemical; design: species or system Machupo virus
in vitro = settings: african green monkey, veroe6 tmprss2 cells
LCMV ExoN = LCMV ExoN (Mammarenavirus choriomeningitidis, UniProt P09992); assay: biochemical; design: species or system Lymphocytic Choriomeningitis virus
[2] = test system: LCMV, MACV and SARS-CoV-2 ExoN; type: biochemical
[3] = target: SARS-CoV-2 ExoN nsp14/nsp10 complex (Severe acute respiratory syndrome coronavirus 2, UniProt P0DTD1); assay: biochemical; settings: read-out: % inhibition of ExoN at 5 μM
LCMV minigenome = type: cell-based
[4] = Severe acute respiratory syndrome coronavirus 2, VeroE6/TMPRSS2
[5] = read-out: % inhibition of ExoN at 5 μM

LCMV ExoN, sequence (P09992 357-558 limits assumed): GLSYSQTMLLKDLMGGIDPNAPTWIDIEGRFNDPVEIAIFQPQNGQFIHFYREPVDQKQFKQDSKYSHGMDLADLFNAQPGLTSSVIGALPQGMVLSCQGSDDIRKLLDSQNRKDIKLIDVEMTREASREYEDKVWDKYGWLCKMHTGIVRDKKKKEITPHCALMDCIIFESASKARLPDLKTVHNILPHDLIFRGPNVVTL
MACV ExoN, sequence (P26578 355-564 limits assumed): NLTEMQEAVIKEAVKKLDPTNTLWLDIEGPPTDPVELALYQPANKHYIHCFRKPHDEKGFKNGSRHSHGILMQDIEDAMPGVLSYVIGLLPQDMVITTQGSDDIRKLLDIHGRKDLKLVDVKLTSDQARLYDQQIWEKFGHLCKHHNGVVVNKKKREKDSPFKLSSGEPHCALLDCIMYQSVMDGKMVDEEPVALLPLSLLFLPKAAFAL

Structure (SMILES)	EC50 [1, 4]	IC50 (MACV ExoN; IC50)	inhibition at 5 µM (MACV ExoN; [5])	EC50 [1]	CC50 at 48 h (in vitro)	IC50 (LCMV ExoN; IC50)	inhibition at 5 µM (LCMV ExoN; [5])	% inhibition of ExoN at 20 μM, all ExoN [2]	inhibition at 5 µM [3]	antiviral effect (LCMV minigenome)
CCC(CC)COC(=O)[C@H](C)N[P@](=O)(OC[C@H]1O[C@@](C#N)(c2ccc3c(N)ncnn23)[C@H](O)[C@@H]1O)Oc1ccccc1 [Remdesivir]	1.5 ± 1.1 µM									
O=C(O)C1=CC(=C(c2ccc(O)c(C(=O)O)c2)c2ccc(O)c(C(=O)O)c2)C=CC1=O [Compound 40, Aurintricarboxyclic acid]	27.2 ± 20.7 µM	5.57 µM and 5.6 µM	39%	27 µM	> 50 µM	7.05 µM and 7.1 µM	52%	100%	23%	no antiviral effect

From PMC9212739 (Antiviral Research, 2022)
